From US7192906B2, “Substituted pyrazole derivatives, production process thereof, and herbicide compositions containing the derivatives” (SDS Biotech K.K., priority 2001, dated 2007)

tested on: Rice (Oryza sativa); assay: Test Example 3 paddy field treatment, crop phytotoxicity; format: in vivo; settings: Table 6, paddy field treatment, transplanted rice, active ingredient 1 kg per hectare, 21st day after dropping, index 0-5
In short: (§1)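 Weed seeds sown in puddled paddy soil under 4 cm water, with two-leaf Koshihikari rice transplanted; 10 days later a wettable powder was applied to the water surface at 1 kg active ingredient/ha. Scored 21 days after application on a 0–5 scale (0 = <10%, 5 = ≥90% herbicidal effect or phytotoxicity).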

Question: With `CNC(=O)C(Cn1cc(C)c(-c2ccc(F)c(F)c2)n1)=NOC` [Compound 59] as the molecule, how does the “Herbicidal activity (phytotoxicity) OS” value read?
Answer: Its value is 0 (herbicidal effect of not less than 0% and less than 10%, or phytotoxicity of 0% or more and less than 10%).

Question: `CNC(=O)C(Cn1cc(C)c(-c2ccc(OC(F)F)cc2)n1)=NOC` [Compound 65] was tested. Which “Herbicidal activity (phytotoxicity) OS” value did it give?
Answer: The value was 0 (herbicidal effect of not less than 0% and less than 10%, or phytotoxicity of 0% or more and less than 10%).

tested on: wheat (Triticum aestivum); assay: Test Example 1 upland field foliage treatment, crop phytotoxicity; format: in vivo; settings: Table 4, upland field foliage treatment, index 0-5
In short: (§2)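 Scores are visual 0–5 ratings of herbicidal effect or crop injury (0: under 10%; 5: 90% or more) taken 21 days after treatment. Plants grew from seed in upland soil for 14 days, then foliage received the compound as a water-diluted wettable powder at 1 kg/ha active ingredient.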

Question: How did the “Herbicidal activity (phytotoxicity) TA: Wheat (Triticum aestivum)” value (“Herbicidal activity (phytotoxicity) TA” for short) turn out when `CNC(=O)C(Cn1cc(C)c(-c2ccc(F)c(F)c2)n1)=NOC` [Compound 59] was run?
Answer: The value was 0 (herbicidal effect of not less than 0% and less than 10%, or phytotoxicity of 0% or more and less than 10%).

Question: `CNC(=O)C(Cn1cc(C)c(-c2ccc(OC(F)F)cc2)n1)=NOC` [Compound 65] was tested. Which “Herbicidal activity (phytotoxicity) TA” value did it give?
Answer: The value was 0 (herbicidal effect of not less than 0% and less than 10%, or phytotoxicity of 0% or more and less than 10%).

tested on: soybean (Glycine max); assay: as above; format: in vivo; settings: Table 4, upland field foliage treatment, index 0-5
In short: as §2

Question: How did the “Herbicidal activity (phytotoxicity) GM: Soybean (Glycine max)” value (“Herbicidal activity (phytotoxicity) GM” for short) turn out when `CNC(=O)C(Cn1cc(C)c(-c2ccc(F)c(F)c2)n1)=NOC` [Compound 59] was run?
Answer: The value was 0 (herbicidal effect of not less than 0% and less than 10%, or phytotoxicity of 0% or more and less than 10%).

Question: How did the “Herbicidal activity (phytotoxicity) GM” value turn out when `CNC(=O)C(Cn1cc(C)c(-c2ccc(OC(F)F)cc2)n1)=NOC` [Compound 65] was run?
Answer: Its value is 0 (herbicidal effect of not less than 0% and less than 10%, or phytotoxicity of 0% or more and less than 10%).

tested on: Chenopodium album; assay: Test Example 2 upland soil treatment; format: in vivo; settings: Table 5, upland soil treatment, index 0-5
In short: (§3)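 Visual 0–5 grading of herbicidal effect or phytotoxicity, made 21 days after a single pre-emergence soil-surface application at 1 kg a.i./ha.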

Question: Which “Herbicidal activity CA: Chenopodium album” value (“Herbicidal activity CA” for short) does the source give for `CNC(=O)C(Cn1cc(C)c(-c2ccc(F)c(F)c2)n1)=NOC` [Compound 59] here?
Answer: The value was 5 (herbicidal effect of not less than 90%, or phytotoxicity of 90% or more).

Question: With `CNC(=O)C(Cn1cc(C)c(-c2ccc(OC(F)F)cc2)n1)=NOC` [Compound 65] as the molecule, how does the “Herbicidal activity CA” value read?
Answer: The value was 5 (herbicidal effect of not less than 90%, or phytotoxicity of 90% or more).

tested on: Stellaria media; assay: Test Example 2 upland soil treatment; format: in vivo; settings: Table 5, upland soil treatment, index 0-5
In short: as §3

Question: With `CNC(=O)C(Cn1cc(C)c(-c2ccc(F)c(F)c2)n1)=NOC` [Compound 59] as the molecule, how does the “Herbicidal activity SM: Stellaria media” value read?
Answer: The value was 5 (herbicidal effect of not less than 90%, or phytotoxicity of 90% or more).

Question: Which “Herbicidal activity SM: Stellaria media” value does the source give for `CNC(=O)C(Cn1cc(C)c(-c2ccc(OC(F)F)cc2)n1)=NOC` [Compound 65] here?
Answer: Its value is 5 (herbicidal effect of not less than 90%, or phytotoxicity of 90% or more).

tested on: Digitaria adscendens; assay: Test Example 2 upland soil treatment; format: in vivo; settings: Table 5, upland soil treatment, index 0-5
In short: as §3

Question: Which “Herbicidal activity DA: Digitaria adscendens” value (“Herbicidal activity DA” for short) does the source give for `CNC(=O)C(Cn1cc(C)c(-c2ccc(F)c(F)c2)n1)=NOC` [Compound 59] here?
Answer: The value was 5 (herbicidal effect of not less than 90%, or phytotoxicity of 90% or more).

Question: With `CNC(=O)C(Cn1cc(C)c(-c2ccc(OC(F)F)cc2)n1)=NOC` [Compound 65] as the molecule, how does the “Herbicidal activity DA” value read?
Answer: The value was 5 (herbicidal effect of not less than 90%, or phytotoxicity of 90% or more).

tested on: Setaria viridis; assay: Test Example 2 upland soil treatment; format: in vivo; settings: Table 5, upland soil treatment, index 0-5
In short: as §3

Question: Which “Herbicidal activity SV: Setaria viridis” value does the source give for `CNC(=O)C(Cn1cc(C)c(-c2ccc(F)c(F)c2)n1)=NOC` [Compound 59] here?
Answer: The value was 5 (herbicidal effect of not less than 90%, or phytotoxicity of 90% or more).

Question: For `CNC(=O)C(Cn1cc(C)c(-c2ccc(OC(F)F)cc2)n1)=NOC` [Compound 65], which “Herbicidal activity SV: Setaria viridis” value is on record?
Answer: The value was 5 (herbicidal effect of not less than 90%, or phytotoxicity of 90% or more).

tested on: Echinochloa crusgalli; assay: Test Example 3 paddy field treatment; format: in vivo; settings: Table 6, paddy field treatment, active ingredient 1 kg per hectare, 21st day after dropping, index 0-5
In short: as §1

Question: How did the “Herbicidal activity EC” value turn out when `CNC(=O)C(Cn1cc(C)c(-c2ccc(F)c(F)c2)n1)=NOC` [Compound 59] was run?
Answer: The value was 5 (herbicidal effect of not less than 90%, or phytotoxicity of 90% or more).

Question: How did the “Herbicidal activity EC” value turn out when `CNC(=O)C(Cn1cc(C)c(-c2ccc(OC(F)F)cc2)n1)=NOC` [Compound 65] was run?
Answer: The value was 5 (herbicidal effect of not less than 90%, or phytotoxicity of 90% or more).

tested on: Monochoria vaginalis; assay: Test Example 3 paddy field treatment; format: in vivo; settings: Table 6, paddy field treatment, active ingredient 1 kg per hectare, 21st day after dropping, index 0-5
In short: as §1

Question: With `CNC(=O)C(Cn1cc(C)c(-c2ccc(F)c(F)c2)n1)=NOC` [Compound 59] as the molecule, how does the “Herbicidal activity MV” value read?
Answer: Its value is 5 (herbicidal effect of not less than 90%, or phytotoxicity of 90% or more).

Question: How did the “Herbicidal activity MV” value turn out when `CNC(=O)C(Cn1cc(C)c(-c2ccc(OC(F)F)cc2)n1)=NOC` [Compound 65] was run?
Answer: Its value is 5 (herbicidal effect of not less than 90%, or phytotoxicity of 90% or more).

tested on: Ammannia multiflora; assay: Test Example 3 paddy field treatment; format: in vivo; settings: Table 6, paddy field treatment, active ingredient 1 kg per hectare, 21st day after dropping, index 0-5
In short: as §1

Question: With `CNC(=O)C(Cn1cc(C)c(-c2ccc(F)c(F)c2)n1)=NOC` [Compound 59] as the molecule, how does the “Herbicidal activity AM” value read?
Answer: Its value is 5 (herbicidal effect of not less than 90%, or phytotoxicity of 90% or more).

Question: With `CNC(=O)C(Cn1cc(C)c(-c2ccc(OC(F)F)cc2)n1)=NOC` [Compound 65] as the molecule, how does the “Herbicidal activity AM” value read?
Answer: Its value is 5 (herbicidal effect of not less than 90%, or phytotoxicity of 90% or more).

tested on: Scirpus juncoides; assay: Test Example 3 paddy field treatment; format: in vivo; settings: Table 6, paddy field treatment, active ingredient 1 kg per hectare, 21st day after dropping, index 0-5
In short: as §1

Question: For `CNC(=O)C(Cn1cc(C)c(-c2ccc(F)c(F)c2)n1)=NOC` [Compound 59], which “Herbicidal activity SJ” value is on record?
Answer: The value was 5 (herbicidal effect of not less than 90%, or phytotoxicity of 90% or more).

Question: With `CNC(=O)C(Cn1cc(C)c(-c2ccc(OC(F)F)cc2)n1)=NOC` [Compound 65] as the molecule, how does the “Herbicidal activity SJ” value read?
Answer: The value was 5 (herbicidal effect of not less than 90%, or phytotoxicity of 90% or more).

tested on: wheat (Triticum aestivum); assay: Test Example 2 upland soil treatment, crop phytotoxicity; format: in vivo; settings: Table 5, upland soil treatment, index 0-5
In short: as §3

Question: Which “Herbicidal activity (phytotoxicity) TA” value does the source give for `CNC(=O)C(Cn1cc(C)c(-c2ccc(F)c(F)c2)n1)=NOC` [Compound 59] here?
Answer: The value was 0 (herbicidal effect of not less than 0% and less than 10%, or phytotoxicity of 0% or more and less than 10%).

Question: How did the “Herbicidal activity (phytotoxicity) TA” value turn out when `CNC(=O)C(Cn1cc(C)c(-c2ccc(OC(F)F)cc2)n1)=NOC` [Compound 65] was run?
Answer: Its value is 0 (herbicidal effect of not less than 0% and less than 10%, or phytotoxicity of 0% or more and less than 10%).

tested on: soybean (Glycine max); assay: as above; format: in vivo; settings: Table 5, upland soil treatment, index 0-5
In short: as §3

Question: How did the “Herbicidal activity (phytotoxicity) GM” value turn out when `CNC(=O)C(Cn1cc(C)c(-c2ccc(F)c(F)c2)n1)=NOC` [Compound 59] was run?
Answer: Its value is 0 (herbicidal effect of not less than 0% and less than 10%, or phytotoxicity of 0% or more and less than 10%).

Question: For `CNC(=O)C(Cn1cc(C)c(-c2ccc(OC(F)F)cc2)n1)=NOC` [Compound 65], which “Herbicidal activity (phytotoxicity) GM” value is on record?
Answer: Its value is 0 (herbicidal effect of not less than 0% and less than 10%, or phytotoxicity of 0% or more and less than 10%).

tested on: Chenopodium album; assay: Test Example 1 upland field foliage treatment; format: in vivo; settings: Table 4, upland field foliage treatment, index 0-5
In short: as §2

Question: For `CNC(=O)C(Cn1cc(C)c(-c2ccc(F)c(F)c2)n1)=NOC` [Compound 59], which “Herbicidal activity CA” value is on record?
Answer: The value was 5 (herbicidal effect of not less than 90%, or phytotoxicity of 90% or more).

Question: With `CNC(=O)C(Cn1cc(C)c(-c2ccc(OC(F)F)cc2)n1)=NOC` [Compound 65] as the molecule, how does the “Herbicidal activity CA” value read?
Answer: Its value is 5 (herbicidal effect of not less than 90%, or phytotoxicity of 90% or more).

tested on: Stellaria media; assay: Test Example 1 upland field foliage treatment; format: in vivo; settings: Table 4, upland field foliage treatment, index 0-5
In short: as §2

Question: How did the “Herbicidal activity SM: Stellaria media” value turn out when `CNC(=O)C(Cn1cc(C)c(-c2ccc(F)c(F)c2)n1)=NOC` [Compound 59] was run?
Answer: The value was 5 (herbicidal effect of not less than 90%, or phytotoxicity of 90% or more).

Question: With `CNC(=O)C(Cn1cc(C)c(-c2ccc(OC(F)F)cc2)n1)=NOC` [Compound 65] as the molecule, how does the “Herbicidal activity SM: Stellaria media” value read?
Answer: Its value is 5 (herbicidal effect of not less than 90%, or phytotoxicity of 90% or more).

tested on: Digitaria adscendens; assay: Test Example 1 upland field foliage treatment; format: in vivo; settings: Table 4, upland field foliage treatment, index 0-5
In short: as §2

Question: With `CNC(=O)C(Cn1cc(C)c(-c2ccc(F)c(F)c2)n1)=NOC` [Compound 59] as the molecule, how does the “Herbicidal activity DA” value read?
Answer: Its value is 5 (herbicidal effect of not less than 90%, or phytotoxicity of 90% or more).

Question: How did the “Herbicidal activity DA” value turn out when `CNC(=O)C(Cn1cc(C)c(-c2ccc(OC(F)F)cc2)n1)=NOC` [Compound 65] was run?
Answer: Its value is 5 (herbicidal effect of not less than 90%, or phytotoxicity of 90% or more).

tested on: Setaria viridis; assay: Test Example 1 upland field foliage treatment; format: in vivo; settings: Table 4, upland field foliage treatment, index 0-5
In short: as §2

Question: Which “Herbicidal activity SV: Setaria viridis” value does the source give for `CNC(=O)C(Cn1cc(C)c(-c2ccc(F)c(F)c2)n1)=NOC` [Compound 59] here?
Answer: Its value is 5 (herbicidal effect of not less than 90%, or phytotoxicity of 90% or more).

Question: With `CNC(=O)C(Cn1cc(C)c(-c2ccc(OC(F)F)cc2)n1)=NOC` [Compound 65] as the molecule, how does the “Herbicidal activity SV: Setaria viridis” value read?
Answer: Its value is 5 (herbicidal effect of not less than 90%, or phytotoxicity of 90% or more).
